# Laboratory results: US12202835B2, “Substituted aromatic ring-linked dioxinoquinazolines and dioxinoquinolines as kinase inhibitors” (BEIJING SCITECH-MQ PHARMACEUTICALS LIMITED, priority 2018, dated 2025)
# What was measured:
# TRKA kinase = TRKA kinase (Homo sapiens (Human), UniProt P04629); experiment: Assay of small molecular compounds for inhibiting the activity of TRKA kinase (LANCE TR-FRET); type: biochemical
# Outline: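 LANCE TR-FRET with ULight-TK peptide; compounds pre-incubated 5 min with TRKA (2× solution 2 nM), then substrate/ATP added (4× mix: 400 nM peptide, 40 μM ATP). Reaction 60 min at room temperature in dark, 1% DMSO final; stopped, detection developed 60 min, signal read.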
# MER kinase = MER kinase (Homo sapiens (Human), UniProt Q12866); experiment: Assay of small molecular compounds for inhibiting the activity of MER kinase (LANCE TR-FRET); type: biochemical
# Outline: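 MER kinase preincubated 5 min at RT with compound (11 points, 0.042-2500 nM final), then ULight-poly GT and ATP added (4× stocks 200 nM and 20 μM) for 60 min at RT, 1% DMSO. Phosphorylation detected by LANCE TR-FRET; IC50 from % inhibition versus controls.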
# VEGFR-2 kinase = VEGFR-2 kinase (Homo sapiens (Human), UniProt P35968); experiment: Assay of small molecular compounds for inhibiting the activity of VEGFR-2 kinase (LANCE TR-FRET); type: biochemical; conditions: read-out: VEGFR2 IC50
# Procedure: The assay is based on the LANCE TR-FRET technology of Perkin Elmer Inc., and the assay method is as follows: • 1. Dilution of compounds: a total of 11 concentrations were obtained using a 3-fold gradient dilution from the highest concentration of 2500 nM (the maximum final concentration of the drug used in this assay was 2500 nM, and the minimum final concentration was 0.042 nM). • 2. 2.5 μL of the gradient-diluted compounds were taken with a transfer pipette to a 384-well plate. • 3. Addition of enzyme: 5 μL of 2×VEGFR2 kinase solution (with a concentration of 0.5 nM) was taken with a transfer pipette to the corresponding reaction well of the 384-well plate, mixed well and pre-reacted at room temperature for 30 minutes. • 4. 2.5 μL 4× Ultra ULight™-JAK-1 (Tyr1023) Peptide (with a concentration of 200 nM)/ATP (with a concentration of 40 μM) mixture was taken with a transfer pipette to the corresponding reaction well of the 384-well plate. • 5. Negative control: 2.5 μL/well 4× substrate/ATP mixture and 7.5 μL 1× Kinase Assay Buffer were added to the wells of the 384-well plate. • 6. Positive control: 2.5 μL/well 4× substrate/ATP mixture, 2.5 μL/well 1× Kinase Assay Buffer containing 16% DMSO, and 5 μL/well 2×VEGFR-2 kinase solution were added to the 384-well plate. The final concentration of DMSO in the reaction system was 4%. • 7. The mixture was mixed well and then centrifuged and reacted at room temperature in dark for 60 min. • 8. Termination of the enzymatic reaction: 5 μL of 4× stop solution was taken with a transfer pipette to the wells of the 384-well plate, mixed and then centrifuged, and reacted at room temperature for 5 min. • 9. Development of the reaction: 5 μL of 4× detection solution was taken with a transfer pipette to the wells of the 384-well plate for color development, and the mixture was mixed and then centrifuged and reacted at room temperature for 60 min. • 10. The 384-well plate was placed into the Envision plate reader and the signal was detected using the appropriate program. • 11. Analysis and processing of the raw data: The drug concentrations and the corresponding inhibition rates were input into GraphPad Prism5 for calculation, and the inhibition rate of the compounds were calculated as follows: inhibition rate (%)=(reading of positive well−reading of experimental well)/(reading of positive control well−reading of negative control well)×100%. Processing with GraphPad Prism5 software yielded the corresponding IC50 values (the concentration of the compound at which 50% of the highest inhibition of the enzyme is achieved).
# c-MET kinase = c-MET kinase (Homo sapiens (Human), UniProt P08581); experiment: Assay of small molecular compounds for inhibiting the activity of c-MET kinase (LANCE TR-FRET); type: biochemical; conditions: read-out: CMET IC50
# Outline: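 LANCE TR-FRET assay with c-MET at 1 nM final after a 5 min room-temperature preincubation with compound (11-point, 3-fold series, 2500–0.042 nM final, 4% DMSO). ULight-JAK-1 (Tyr1023) peptide (100 nM final) and ATP (10 μM final) reacted 60 min in the dark. Inhibition was taken relative to controls, then IC50 fitted.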
# Ba/F3-AXL cells = experiment: Assay for inhibiting the proliferation of Ba/F3-AXL cells (CCK-8); type: cell-based; conditions: 72 hours of incubation, medium with 100 ng/mL hGas6, CCK-8
# Procedure: The values were then imported into Graphpad Prism 5 software for curve fitting, and IC50 was calculated.
# Ba/F3 LMNA-NTRK1 cells = experiment: Assay for inhibiting the proliferation of Ba/F3 LMNA-NTRK1 cells (CCK-8); type: cell-based; conditions: Mus musculus, BaF3
# Procedure: In particular, the method of the assay of small molecular compounds for inhibiting cell proliferation is as follows: • 1. Cells cultured to a logarithmic growth phase (adherent cells need to be digested with trypsin and neutralized) were taken, pipetted evenly, transferred to a 15 mL centrifuge tube, and centrifuged at 1000 rpm at room temperature for 4 minutes; • 2. The supernatant was discarded; 5 mL of complete medium was added and pipetted evenly; 10 μL of cell suspension was taken out, mixed well with 10 μL of 0.4% trypan blue, and counted under a cell counter; the proportion of living cells was ensured to be above 90%; • 3. 80 μL of cell suspension per well was seeded into a 96-well plate according to the conditions shown in the attached table, and cultured overnight; in the outer 36 wells of the 96-well plate, no cells were added but only sterile water was added; only the inner 60 wells were used for cell assay and control; • 4. […] 20 μL of the corresponding compounds with different concentration gradients were added to each well of assay wells of the 96-well plate; 20 μL of complete medium was added to positive and negative control wells and shaken well; and the final concentration of DMSO in each well was 0.25%; • 6. After 72 hours of incubation, 10 μL of CCK-8 reagent was added to each well and further incubated at 37° C. for 1-2 hours; and the OD value was read at 450 nm; • 7. Cell survival rate (%)=[(As−Ab)/(Ac−Ab)]*100% • As: Assay well (medium containing cells, CCK-8, compound), • Ac: Control well (medium containing cells, CCK-8), • Ab: Blank well (CCK-8, medium without cell and compound), • 8. The values were imported into Graphpad Prism 5 software for IC50 calculation.
# Sequence of TRKA kinase (P04629 33-796): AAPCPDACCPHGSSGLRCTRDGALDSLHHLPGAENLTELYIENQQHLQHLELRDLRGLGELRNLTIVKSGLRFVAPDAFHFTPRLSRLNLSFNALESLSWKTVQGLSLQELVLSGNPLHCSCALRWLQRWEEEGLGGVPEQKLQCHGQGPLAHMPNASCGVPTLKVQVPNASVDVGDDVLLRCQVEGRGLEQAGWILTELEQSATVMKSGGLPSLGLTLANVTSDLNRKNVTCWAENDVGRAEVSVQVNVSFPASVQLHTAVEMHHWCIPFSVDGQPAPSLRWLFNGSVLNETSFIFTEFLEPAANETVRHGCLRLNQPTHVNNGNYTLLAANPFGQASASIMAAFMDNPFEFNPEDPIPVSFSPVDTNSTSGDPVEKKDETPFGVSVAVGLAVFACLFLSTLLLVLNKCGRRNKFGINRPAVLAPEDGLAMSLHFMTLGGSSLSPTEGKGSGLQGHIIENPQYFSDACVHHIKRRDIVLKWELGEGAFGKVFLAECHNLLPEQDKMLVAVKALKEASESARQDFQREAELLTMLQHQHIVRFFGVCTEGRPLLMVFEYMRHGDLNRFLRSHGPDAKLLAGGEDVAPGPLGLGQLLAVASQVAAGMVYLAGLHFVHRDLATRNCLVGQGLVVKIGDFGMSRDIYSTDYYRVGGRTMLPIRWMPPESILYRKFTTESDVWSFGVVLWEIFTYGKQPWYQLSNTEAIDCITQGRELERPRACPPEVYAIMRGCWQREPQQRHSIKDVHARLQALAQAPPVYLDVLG
# Sequence of VEGFR-2 kinase (P35968 20-1356): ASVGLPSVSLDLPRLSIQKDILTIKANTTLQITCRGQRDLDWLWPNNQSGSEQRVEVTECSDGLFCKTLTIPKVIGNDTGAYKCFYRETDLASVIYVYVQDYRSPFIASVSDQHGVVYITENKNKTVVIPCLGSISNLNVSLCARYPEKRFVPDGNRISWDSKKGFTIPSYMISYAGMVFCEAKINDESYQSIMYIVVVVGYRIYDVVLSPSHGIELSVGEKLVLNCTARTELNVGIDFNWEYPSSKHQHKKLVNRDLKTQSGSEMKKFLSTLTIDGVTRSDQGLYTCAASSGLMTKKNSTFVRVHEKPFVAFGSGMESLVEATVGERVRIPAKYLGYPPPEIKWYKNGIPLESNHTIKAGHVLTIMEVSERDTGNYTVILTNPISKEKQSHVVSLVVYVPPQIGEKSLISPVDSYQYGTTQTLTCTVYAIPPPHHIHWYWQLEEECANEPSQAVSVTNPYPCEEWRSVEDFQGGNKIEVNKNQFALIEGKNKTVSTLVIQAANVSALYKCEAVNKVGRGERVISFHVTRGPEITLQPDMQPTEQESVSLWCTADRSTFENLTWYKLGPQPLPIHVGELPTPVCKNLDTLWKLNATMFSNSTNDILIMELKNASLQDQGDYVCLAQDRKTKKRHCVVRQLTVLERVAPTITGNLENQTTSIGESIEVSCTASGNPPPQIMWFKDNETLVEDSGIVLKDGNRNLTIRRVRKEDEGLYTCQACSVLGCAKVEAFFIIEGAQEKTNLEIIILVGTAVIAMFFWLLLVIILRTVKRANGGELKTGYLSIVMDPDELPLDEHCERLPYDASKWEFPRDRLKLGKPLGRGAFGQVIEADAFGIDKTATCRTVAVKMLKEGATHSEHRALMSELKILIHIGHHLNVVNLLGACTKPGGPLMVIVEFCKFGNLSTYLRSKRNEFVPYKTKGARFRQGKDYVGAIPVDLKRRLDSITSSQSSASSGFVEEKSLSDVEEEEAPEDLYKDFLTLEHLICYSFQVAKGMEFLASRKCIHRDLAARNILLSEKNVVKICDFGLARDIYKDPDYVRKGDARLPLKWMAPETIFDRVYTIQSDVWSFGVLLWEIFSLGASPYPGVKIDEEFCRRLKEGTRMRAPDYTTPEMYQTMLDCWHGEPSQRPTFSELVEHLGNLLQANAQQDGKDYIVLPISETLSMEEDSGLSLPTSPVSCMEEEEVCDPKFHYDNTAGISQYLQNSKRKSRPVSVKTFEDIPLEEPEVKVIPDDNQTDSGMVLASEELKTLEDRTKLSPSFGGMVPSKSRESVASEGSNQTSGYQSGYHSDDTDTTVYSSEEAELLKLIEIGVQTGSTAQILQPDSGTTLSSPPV
# Sequence of MER kinase (Q12866 21-999): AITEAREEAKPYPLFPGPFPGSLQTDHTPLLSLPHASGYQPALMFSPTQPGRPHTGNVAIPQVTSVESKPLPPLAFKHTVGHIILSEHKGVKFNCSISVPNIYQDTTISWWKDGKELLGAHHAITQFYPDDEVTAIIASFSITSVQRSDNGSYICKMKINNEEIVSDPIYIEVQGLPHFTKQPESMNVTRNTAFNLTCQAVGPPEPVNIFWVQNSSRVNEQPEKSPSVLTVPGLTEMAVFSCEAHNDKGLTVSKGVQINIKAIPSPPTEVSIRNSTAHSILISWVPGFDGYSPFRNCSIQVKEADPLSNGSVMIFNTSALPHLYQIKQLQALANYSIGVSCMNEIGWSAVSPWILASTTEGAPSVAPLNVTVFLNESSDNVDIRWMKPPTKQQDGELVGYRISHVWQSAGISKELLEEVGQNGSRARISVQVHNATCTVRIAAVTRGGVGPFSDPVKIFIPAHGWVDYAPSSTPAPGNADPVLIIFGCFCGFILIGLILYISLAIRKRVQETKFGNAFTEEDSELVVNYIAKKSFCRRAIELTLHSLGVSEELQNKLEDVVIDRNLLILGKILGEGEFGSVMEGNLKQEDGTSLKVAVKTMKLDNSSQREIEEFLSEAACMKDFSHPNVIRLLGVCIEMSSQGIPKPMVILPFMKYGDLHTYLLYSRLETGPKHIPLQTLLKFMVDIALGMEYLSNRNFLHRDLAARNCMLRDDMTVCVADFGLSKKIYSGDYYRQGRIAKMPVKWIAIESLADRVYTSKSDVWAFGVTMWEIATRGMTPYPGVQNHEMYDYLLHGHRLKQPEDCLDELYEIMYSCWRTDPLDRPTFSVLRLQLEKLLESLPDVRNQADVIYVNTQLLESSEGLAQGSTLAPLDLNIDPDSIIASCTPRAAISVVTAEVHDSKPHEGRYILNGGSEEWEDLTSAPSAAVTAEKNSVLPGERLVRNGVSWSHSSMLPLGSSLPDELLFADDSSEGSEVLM
# Sequence of c-MET kinase (P08581 25-1390): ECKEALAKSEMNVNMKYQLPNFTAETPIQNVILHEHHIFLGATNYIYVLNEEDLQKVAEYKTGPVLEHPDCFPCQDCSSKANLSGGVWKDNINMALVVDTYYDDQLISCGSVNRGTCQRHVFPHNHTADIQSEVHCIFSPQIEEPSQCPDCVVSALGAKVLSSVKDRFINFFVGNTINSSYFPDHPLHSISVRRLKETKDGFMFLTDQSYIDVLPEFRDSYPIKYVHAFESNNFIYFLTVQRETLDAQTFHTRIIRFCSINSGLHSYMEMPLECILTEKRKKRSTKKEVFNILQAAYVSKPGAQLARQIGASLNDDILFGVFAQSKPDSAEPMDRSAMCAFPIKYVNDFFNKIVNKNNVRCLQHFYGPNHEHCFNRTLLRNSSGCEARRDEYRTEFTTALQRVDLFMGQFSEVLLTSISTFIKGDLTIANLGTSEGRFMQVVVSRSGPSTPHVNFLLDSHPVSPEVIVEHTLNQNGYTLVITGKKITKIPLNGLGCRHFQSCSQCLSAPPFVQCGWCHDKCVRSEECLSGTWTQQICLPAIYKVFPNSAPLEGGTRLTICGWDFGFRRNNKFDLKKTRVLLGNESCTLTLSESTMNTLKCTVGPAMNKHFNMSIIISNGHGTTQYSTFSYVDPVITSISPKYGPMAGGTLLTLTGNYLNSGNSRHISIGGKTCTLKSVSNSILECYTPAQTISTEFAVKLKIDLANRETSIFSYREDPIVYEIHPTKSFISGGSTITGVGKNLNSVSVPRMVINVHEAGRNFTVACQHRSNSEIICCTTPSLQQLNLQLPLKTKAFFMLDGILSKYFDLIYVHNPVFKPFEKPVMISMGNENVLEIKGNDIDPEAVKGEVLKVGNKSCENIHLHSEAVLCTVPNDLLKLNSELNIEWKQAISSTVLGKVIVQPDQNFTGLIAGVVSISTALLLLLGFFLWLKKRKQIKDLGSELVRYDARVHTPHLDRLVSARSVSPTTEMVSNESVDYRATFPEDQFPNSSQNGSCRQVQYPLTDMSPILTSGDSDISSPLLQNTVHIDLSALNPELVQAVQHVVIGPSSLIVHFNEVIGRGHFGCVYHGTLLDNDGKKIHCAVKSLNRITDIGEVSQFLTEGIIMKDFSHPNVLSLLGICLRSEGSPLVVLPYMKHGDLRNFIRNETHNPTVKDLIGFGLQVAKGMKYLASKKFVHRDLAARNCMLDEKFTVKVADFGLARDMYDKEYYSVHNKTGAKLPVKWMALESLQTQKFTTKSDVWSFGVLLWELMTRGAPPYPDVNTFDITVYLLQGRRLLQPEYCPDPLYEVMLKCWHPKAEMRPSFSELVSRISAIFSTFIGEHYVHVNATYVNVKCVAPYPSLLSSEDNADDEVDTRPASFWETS
Compound,IC50 (TRKA kinase) [nM],IC50 (MER kinase) [nM],IC50 (VEGFR-2 kinase) [nM],IC50 (c-MET kinase) [nM],IC50 (Ba/F3-AXL cells) [nM],IC50 (Ba/F3 LMNA-NTRK1 cells) [nM]
"CCOc1ccn(C2CCCCC2)c(=O)c1C(=O)Nc1ccc(Oc2ccnc3cc(OC)c4c(c23)OCCO4)c(F)c1 [Example 119, 1-cyclohexyl-4-ethoxy-N-(3-fluoro-4-((5-methoxy-2,3-dihydro-[1,4]dioxino[2,3-f]quinolin-1 0-yl)oxy)phenyl)-2-oxo-1,2-dihydropyridine-3-carboxamide]",> 5000,500 to 5000,> 5000,–,–,–
"COc1cc2nccc(Oc3ccc(NC(=O)c4cn(C(C)C)c(=O)n(-c5cccc(F)c5)c4=O)cc3F)c2c2c1OCCO2 [Example 109, N-(3-fluoro-4-((5-methoxy-2,3-dihydro-[1,4]dioxino[2,3-f]quinolin-10-yl)oxy)phenyl)-3-(3-fluorophenyl)-1-isopropyl-2,4-dioxo-1,2,3,4-tetrahydropyrimidine-5-carboxamide]",500 to 5000,≤ 50,–,≤ 50,< 50,–
"CC(C)n1cc(C(=O)Nc2ccc(Oc3ccnc4cc(OCC#N)c5c(c34)OCCO5)c(F)c2)c(=O)n(-c2ccc(F)cc2)c1=O [Example 81, N-(3-fluoro-4-((5-(cyanomethoxy)-2,3-dihydro-[1,4]dioxino[2,3-f]quinolin-10-yl)oxy)phenyl)-3-(4-fluorophenyl)-1-isopropyl-2,4-dioxo-1,2,3,4-tetrahydropyrimidine-5-carboxamide]",500 to 5000,≤ 50,–,50 to 500,< 50,–
"CC(C)n1cc(C(=O)Nc2ccc(Oc3ccnc4cc(OCCCCCCN(C)C)c5c(c34)OCCO5)c(F)c2)c(=O)n(-c2ccc(F)cc2)c1=O [Example 85, N-(3-fluoro-4-((5-((6-dimethylamino)hexyloxy)-2,3-dihydro-[1,4]dioxino[2,3-f]quinolin-10-yl)oxy)phenyl)-3-(4-fluorophenyl)-1-isopropyl-2,4-dioxo-1,2,3,4-tetrahydropyrimidine-5-carboxamide]",–,–,50 to 500,50 to 500,< 50,< 50
"CC(C)n1cc(C(=O)Nc2ccc(Oc3ccnc4cc(OCCCC#N)c5c(c34)OCCO5)c(F)c2)c(=O)n(-c2ccc(F)cc2)c1=O [Example 82, N-(3-fluoro-4-((5-(3-cyanopropoxy)-2,3-dihydro-[1,4]dioxino[2,3-f]quinolin-10-yl)oxy)phenyl)-3-(4-fluorophenyl)-1-isopropyl-2,4-dioxo-1,2,3,4-tetrahydropyrimidine-5-carboxamide]",50 to 500,≤ 50,–,50 to 500,< 50,–

# Other lines, results leading:
IC50 (TRKA kinase) [nM],IC50 (MER kinase) [nM],IC50 (VEGFR-2 kinase) [nM],IC50 (c-MET kinase) [nM],IC50 (Ba/F3-AXL cells) [nM],IC50 (Ba/F3 LMNA-NTRK1 cells) [nM],Compound
< 50,≤ 50,–,≤ 50,< 50,< 50,"CCOc1cn(-c2ccc(F)cc2C)nc1C(=O)Nc1ccc(Oc2ccnc3cc(OCCCN4CCOCC4)c4c(c23)OCCO4)c(F)c1 [Example 28, 1-(4-fluoro-2-methylphenyl)-N-(3-fluoro-4-((5-(3-morpholinopropoxy)-2,3-dihydro-[1,4]dioxino[2,3-f]quinolin-10-yl)oxy)phenyl)-4-ethoxy-1H-pyrazole-3-carboxamide]"
50 to 500,≤ 50,–,50 to 500,< 50,–,"CCOc1cc2nccc(Oc3ccc(NC(=O)c4cn(C(C)C)c(=O)n(-c5ccc(F)cc5)c4=O)cc3F)c2c2c1OCCO2 [Example 87, N-(3-fluoro-4-((5-ethoxy-2,3-dihydro-[1,4]dioxino[2,3-f]quinolin-10-yl)oxy)phenyl)-3-(4-fluorophenyl)-1-isopropyl-2,4-dioxo-1,2,3,4-tetrahydropyrimidine-5-carboxamide]"
< 50,–,50 to 500,≤ 50,–,< 50,"COc1ccn(-c2ccc(F)cc2)c(=O)c1C(=O)Nc1ccc(Oc2ccnc3cc(OCCCN4CCOCC4)c4c(c23)OCCO4)cc1Cl [Example 144, N-(2-chloro-4-((5-(3-morpholinopropoxy)-2,3-dihydro-[1,4]dioxino[2,3-f]quinolin-10-yl)oxy)phenyl)-1-(4-fluorophenyl)-4-methoxy-2-oxo-1,2-dihydropyridine-3-carboxamide]"
< 50,50 to 500,–,50 to 500,–,< 50,"COc1cn(-c2ccc(F)cc2C)nc1C(=O)Nc1ccc(Oc2ccnc3cc(OC)c4c(c23)OCCO4)c(F)c1 [Example 24, 1-(4-fluoro-2-methylphenyl)-N-(3-fluoro-4-((5-methoxy-2,3-dihydro-[1,4]dioxino[2,3-f]quinolin-10-yl)oxy)phenyl)-4-methoxy-1H-pyrazole-3-carboxamide]"
< 50,50 to 500,–,≤ 50,–,< 50,"N#CCCCOc1cc2nccc(Oc3ccc(NC(=O)c4cccn(-c5ccc(F)cc5)c4=O)c(Cl)c3)c2c2c1OCCO2 [Example 131, N-(2-chloro-4-((5-(3-cyanopropoxy)-2,3-dihydro-[1,4]dioxino[2,3-f]quinolin-10-yl)oxy)phenyl)-1-(4-fluorophenyl)-2-oxo-1,2-dihydropyridine-3-carboxamide]"
< 50,50 to 500,–,≤ 50,< 50,< 50,"Cc1cc(F)ccc1-n1ccc(C(=O)Nc2ccc(Oc3ccnc4cc(OCCCN5CCOCC5)c5c(c34)OCCO5)c(F)c2)n1 [Example 26, 1-(4-fluoro-2-methylphenyl)-N-(3-fluoro-4-((5-(3-morpholinopropoxy)-2,3-dihydro-[1,4]dioxino[2,3-f]quinolin-10-yl)oxy)phenyl)-1H-pyrazole-3-carboxamide]"
< 50,≤ 50,> 5000,–,< 50,< 50,"COc1cc2nccc(Oc3ccc(NC(=O)c4cccn(-c5ccc(F)cc5)c4=O)c(Cl)c3)c2c2c1OCCO2 [Example 123, N-(2-chloro-4-((5-methoxy-2,3-dihydro-[1,4]dioxino[2,3-f]quinolin-10-yl)oxy)phenyl)-1-(4-fluorophenyl)-2-oxo-1,2-dihydropyridine-3-carboxamide]"
